# From patent US7910624B1, “Compositions for the treatment of blood disorders” (The Trustees of Boston University, priority 1995, dated 2011)
# “Also recorded” adds a separate entry of the source.
# What was measured:
# [1] = tested on: γ-globin promoter fragment containing FRE-γ1; assay: Gel mobility shift assay with nuclear extracts of patients' erythroblasts; design: species or system human; conditions: nuclear extracts of thalassemic patients on therapy, 21 and 43 hours after
# Description: To gain further information on transcription factors binding to FRE elements, gel mobility shift assays with were carried out with promoter fragments containing FRE-γ1. The 3′ half of the DNA sequence of FRE-γ1 is overlapped with that of the stage-selector element (SSE) which has recently been identified in the γ-globin promoter and may be competitively silencing γ-globin gene expression in the fetal stage. Nuclear extracts were purified from a human erythroleukemia cell line, K562, and from erythroblasts that were isolated from peripheral blood or bone marrow of patients. Nuclear extracts used for gel mobility shift assays were prepared as described (Andrews et al., Nucl. Acids Res. 19:2499-2500, 1991). Oligonucleotides, corresponding to the nucleotide sequence from −39 to −78 of the γ-globin promoter (FIG. 13), were annealed to form double-stranded DNA and 5′-labeled with T4 polynucleotide kinase. Prior to addition of a labeled probe, 5 μg of nuclear extracts were mixed with 500 ng of poly(dA-dT) in 20 μl of a binding buffer (25 mM Hepes, pH 7.5, 50 mM KCl, 12.5 mM MgCl2, 1 mM DTT, 10 mM ZnSO4, 5% (v/v) glycerol, 1% (v/v) NP-40) at room temperature for 30 minutes. After addition of a labeled probe of 5×10^6 cpm, the mixture was incubated for 30 minutes at room temperature. […]
# [2] = tested on: γ-globin gene promoter and HSS-II region of the locus control region; assay: In vivo footprinting (LM-PCR) of patients' erythroblasts before and during treatment; design: species or system human
# Description: To determine whether this increase was due to the transcriptional modulation of the γ-globin genes and, if so, to examine whether protein-DNA interactions of regulatory sequences for γ-globin gene expression have been changed, in vivo footprinting analysis of the γ-globin gene promoter and HSS-II region of the locus control region (LCR) were performed. […] Compared to conventional in vitro footprinting methods, which are ordinarily employed to analyze protein-DNA interactions for promoter regions and fail to disclose tissue-specific binding of nuclear proteins to cis-acting elements, in vivo footprinting technique is able to provide bona fide information on transcription factors binding to cis-acting elements that reflects in vivo situations.
# Erythroid cell-rich fractions were prepared from patients' peripheral blood or bone marrow before and during treatment, and were in vivo methylated using DMS. […] All of the footprints were analyzed two or more times to ensure reproducibility.
# In the γ-globin gene promoter, a DNA fragment extending up to −200 by relative to the transcription start site is sufficient to direct efficient transcription of the γ-globin genes (K. T. McDonagh et al., J. Biol. Chem. 266:11965-74, 1991; M. J. Urich Blood 75:990-99, 1990). […] Erythroblasts from a patient with sickle cell anemia, before and after butyrate treatment were analyzed. […]
# [3] = tested on: Human mammary carcinoma cells (MCF-7); assay: Human mammary carcinoma cell viability by FACS; format: cell-based; conditions: 4 days
# Description: Human mammary carcinoma cells (MCF-7) were cultured alone (controls) and with arginine butyrate or isobutyramide for 4 days. Viability was assayed by FACS after incubation with a fluorescent dye taken up by viable cells (FIG. 6). Growth was decreased by 50% with isobutyramide at 1.0 mM, about 60% with arginine butyrate at 0.5 mM, and greater than 90% with arginine butyrate at 1.0 mM.
# [4] = tested on: system A transport in K562 cells and nucleated erythroblasts from fetal liver; assay: System A (neutral amino acid) transport, 3H-MAIB uptake; format: cell-based, human; conditions: 1 hour incubation, FIG. 12
# Description: Inhibition of nutrient uptake is undesirable for treatment of anemias. Methyl aminoisobutyric acid (MAIB) labeled with tritium (^3H) is normally taken up by system A amino acid transport. Cold (unlabeled) compounds were added to cultures containing ^3H-MAIB and incubated for 1 hour. Cells were harvested and the amount of ^3H taken up by cells was quantitated by scintillation counting.
# [5] = tested on: erythroid progenitor cells cultured from human cord blood; assay: Fetal globin expression in human cell cultures (3H-leucine labelled globin chains, densitometry); format: cell-based
# Method in brief: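 Human cord-blood mononuclear cells were grown in IMDM with 30% FCS and 2 U/ml erythropoietin, with compound present for 12–13 days or overnight. Colonies were labelled with 3H-leucine and chased overnight in leucine-free medium with compound. Globin chains were quantified by electrophoresis with Coomassie densitometry and autoradiography, relative to untreated cells from the same donor.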
SMILES,protein-DNA binding activity in gel shift [1],in vivo footprints of HSS-II ([2]; erythroblasts from a treated sickle cell patient),in vivo footprints over the γ-globin promoter ([2]; erythroblasts of treated patients with sickle cell anemia or β-thalassemia),decrease of growth of MCF-7 ([3]; 0.5 mM),decrease of growth of MCF-7 ([3]; 1.0 mM),system A transport of amino acids (3H-MAIB uptake) [4],"Gamma Increase ([5]; Exp. A, 0.1 mM, 12-13 days, above untreated cells) [%]","Gamma/(Gamma + Beta) ([5]; Exp. A, 0.1 mM, 12-13 days, untreated 76.0%) [%]","Gamma Increase ([5]; Exp. B, 0.5 mM, 12-13 days) [%]","Gamma/(Gamma + Beta) ([5]; Exp. B, 0.5 mM, 12-13 days, untreated 25.4%, 27.5%) [%]","Gamma Increase ([5]; Exp. C, 0.5 mM, overnight) [%]","Gamma/(Gamma + Beta) ([5]; Exp. C, 0.5 mM, overnight, untreated 52.0%) [%]",system A transport of amino acids (3H-MAIB uptake) ([4]; listed as phenoxy acetic acid),system A transport of amino acids (3H-MAIB uptake) ([4]; listed as phenoxyacetic acid)
"CCCC(=O)O [AB, arginine butyrate]",a new binding activity appeared,novel in vivo footprints that were not seen in a pre-treatment sample became apparent,induces multiple transcription factors which interact with the γ-globin gene promoter; also recorded: degree of protection on G residues in FRE-γ1 consistently increased,about 60%,greater than 90%,inhibited the neutral amino acid transport mechanism,–,–,–,–,–,–,–,–
"O=C(O)COc1ccccc1 [PAA, Phenoxyacetic acid]",–,–,–,–,–,–,6,82.0,13,38.8,3.6,55.6,caused no significant inhibition and actually increased uptake of nutrients into cells,do not significantly alter
